Reference: patent publication US20240261418A1, “SOS1 DEGRADING AGENT AND PREPARATION METHOD THEREFOR AND APPLICATION THEREOF” (SHANGHAI LEADINGTAC PHARMACEUTICAL CO. LTD., priority 2021, published 2024)

What was measured:
KRAS-G12C/SOS1 = biological target: T1, KRAS-G12C/SOS1 (Homo sapiens, UniProt Q07889); assay: KRAS-G12C/SOS1 binding assay (HTRF); conditions: inhibition of KRAS-G12C/SOS1 binding
T1 construct: purchased Cisbio 63ADK000CB16PEG
T1 sequence (Q07889 1-1333): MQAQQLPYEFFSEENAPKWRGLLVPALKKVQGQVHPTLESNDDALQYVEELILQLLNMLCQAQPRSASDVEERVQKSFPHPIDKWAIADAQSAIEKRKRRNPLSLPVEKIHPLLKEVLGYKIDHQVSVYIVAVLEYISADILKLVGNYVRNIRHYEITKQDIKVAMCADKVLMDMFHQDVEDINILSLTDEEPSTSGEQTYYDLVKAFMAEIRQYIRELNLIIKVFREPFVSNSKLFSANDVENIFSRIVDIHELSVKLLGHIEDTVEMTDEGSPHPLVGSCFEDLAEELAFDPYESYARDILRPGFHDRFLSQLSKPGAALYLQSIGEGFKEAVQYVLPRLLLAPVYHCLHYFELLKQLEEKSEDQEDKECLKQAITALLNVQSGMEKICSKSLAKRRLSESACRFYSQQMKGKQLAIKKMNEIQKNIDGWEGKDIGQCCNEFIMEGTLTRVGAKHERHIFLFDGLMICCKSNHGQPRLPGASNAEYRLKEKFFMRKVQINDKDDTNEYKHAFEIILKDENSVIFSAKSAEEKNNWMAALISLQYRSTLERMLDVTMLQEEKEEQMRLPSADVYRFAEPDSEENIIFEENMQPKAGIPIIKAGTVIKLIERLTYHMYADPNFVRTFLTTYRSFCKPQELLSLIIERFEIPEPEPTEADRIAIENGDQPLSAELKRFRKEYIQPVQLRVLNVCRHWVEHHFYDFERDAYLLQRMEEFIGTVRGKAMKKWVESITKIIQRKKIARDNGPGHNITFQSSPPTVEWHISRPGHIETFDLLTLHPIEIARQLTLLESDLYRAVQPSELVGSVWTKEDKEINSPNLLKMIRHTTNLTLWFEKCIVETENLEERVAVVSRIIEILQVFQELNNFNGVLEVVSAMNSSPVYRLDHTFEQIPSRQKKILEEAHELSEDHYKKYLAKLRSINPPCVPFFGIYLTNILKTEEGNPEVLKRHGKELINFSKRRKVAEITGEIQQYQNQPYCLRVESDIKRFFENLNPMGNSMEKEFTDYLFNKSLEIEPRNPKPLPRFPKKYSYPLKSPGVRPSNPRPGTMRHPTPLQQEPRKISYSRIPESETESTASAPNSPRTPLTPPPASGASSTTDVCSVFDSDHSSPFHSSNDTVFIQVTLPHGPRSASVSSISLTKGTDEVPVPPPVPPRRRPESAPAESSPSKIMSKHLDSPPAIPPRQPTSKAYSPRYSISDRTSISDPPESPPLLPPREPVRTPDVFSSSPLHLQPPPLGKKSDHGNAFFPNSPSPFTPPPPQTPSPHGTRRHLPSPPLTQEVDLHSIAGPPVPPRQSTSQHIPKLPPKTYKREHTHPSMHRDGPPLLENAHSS
Method: Test Example 1: KRAS-G12C/SOS1 Binding Assay
The following method was used to determine the extent of inhibition of KRAS-G12C/SOS1 binding by the preferred compounds of the present invention under in vitro conditions. In this method, the competitive inhibition of KRAS-G12C/SOS1 binding by the preferred compounds was assayed by the homogeneous time-resolved fluorescence (HTRF) technology using the KRAS-G12C/SOS1 binding assay kit (Cisbio, 63ADK000CB16PEG).
The experimental procedures were as follows (refer to the kit instructions for details): the compounds of the present invention were each firstly dissolved in DMSO at a concentration of 20 mM, and then diluted in an equal gradient with a buffer in the kit, so that the final concentrations of the test compounds in the reaction system were in a range of 10000 nM-0.04 nM, and the final concentration of DMSO was 0.5%. 2 μL of the compounds were each incubated with 4 μL of 1×Tag1-SOS1, 4 μL of 1×Tag2-KRAS-G12C (containing 10 μM guanosine triphosphate, GTP) at 25° C. for 15 min. Then 5 μL of 1×Anti-Tag1-Tb3+ and 5 μL of 1×Anti-Tag2-XL665 were added to the reaction system, and the mixture was incubated on ice for 3 h. After the incubation, the fluorescence intensity of each well was measured at the excitation wavelength of 337 nm, the fluorescence intensity of each well was read at the emission wavelengths of 620 nm and 665 nm on a microplate reader EnVision (PerkinElmer, 2105) in an HTRF mode, and the Ratio value was calculated by the formula Ratio=(665 nm/620 nm)×[…]. The inhibition rates of the compounds at each concentration were calculated by comparing the fluorescence intensity ratio with that of the control group, and then nonlinear curve fitting was performed by GraphPad Prism 8 in the logarithmic concentration-inhibition rate to obtain the IC50 values of the compounds, as shown in Table 1.

[1] = test system: KRAS G12D mutant human metastatic pancreatic adenocarcinoma cells AsPC-1; assay: 3D cell proliferation inhibition assay, AsPC-1; format: cell-based; conditions: ASPC1, 168 h, 7 days, CTG
Source text: Test Example 4: 3D Cell Proliferation Inhibition Assay
The inhibitory effect of the compounds on the proliferation of 3D cells was investigated on KRAS G12C mutant human non-small cell lung cancer cells NCI-H358 (ATCC or Stem Cell Bank, Chinese Academy of Sciences), KRAS G12D mutant human metastatic pancreatic adenocarcinoma cells AsPC-1 (ATCC), KRAS G12V mutant human lung adenocarcinoma cells NCI-H441 (ATCC), and KRAS G13D mutant human colorectal adenocarcinoma epithelial cells DLD-1 (ATCC). The specific procedures were as follows:
200 nL of compound solution diluted in a gradient was added to corresponding microwells of a 384-well low-adsorption microwell plate (Corning, 3657) using an Echo sonic pipetting system (Labcyte, Echo 550), so that the final concentration of the test compound in the reaction system was in a range of 20000 nM-0.008 nM. Then 40 μL of cells at a certain density were added to the corresponding microplate. In addition to test wells for the test compounds, both a DMSO control well and a medium control well were set, with the DMSO control well containing DMSO and cells and the medium well containing only medium. […] The plate was incubated at room temperature for 30 min and read on a microplate reader EnVision using the chemiluminescence program. […]

| Structure (SMILES) | IC50 (KRAS-G12C/SOS1) | IC50 [1] |
| --- | --- | --- |
| COc1cc2nc(C)nc(N[C@H](C)c3cc(-c4c(Cl)cccc4CN(C)C)cs3)c2cc1[C@H]1CC[C@H](C(=O)N2CCN(CC3CCC4(CC3)CCN(C(=O)c3ccc(Cl)c(N5CCC(=O)NC5=O)c3)CC4)CC2)CC1 [Example 1, 1-(2-chloro-5-(9-((4-((1R,4R)-4-(4-(((R)-1-(4-(2-chloro-6-((dimethylamino)methyl)phenyl)thien-2-yl)ethyl)amino)-7-methoxy-2-methylquinazolin-6-yl)cyclohexane-1-carbonyl)piperazin-1-yl)methyl)-3-azaspiro[5.5]undecane-3-carbonyl)phenyl)dihydropyrimidine-2,4(1H,3H)-dione] | ≤ 15 nM | 15 to 30 nM |
| COc1cc2nc(C)nc(N[C@H](C)c3cc(-c4c(Cl)cccc4CN(C)C)cs3)c2cc1[C@H]1CC[C@H](C(=O)N2CCC(CCOCC3CCN(C(=O)c4ccc(Cl)c(N5CCC(=O)NC5=O)c4)CC3)CC2)CC1 [Example 5, 1-(2-chloro-5-(4-((2-(1-((1R,4R)-4-(4-(((R)-1-(4-(2-chloro-6-((dimethylamino)methyl)phenyl)thien-2-yl)ethyl)amino)-7-methoxy-2-methylquinazolin-6-yl)cyclohexane-1-carbonyl)piperidin-4-yl)ethoxy)methyl)piperidine-1-carbonyl)phenyl)dihydropyrimidine-2,4(1H,3H)-dione] | ≤ 15 nM | 100 to 1000 nM |
